Reference: publication PMC7920280, “The Multi-Targeting Ligand ST-2223 with Histamine H3 Receptor and Dopamine D2/D3 Receptor Antagonist Properties Mitigates Autism-Like Repetitive Behaviors and Brain Oxidative Stress in Mice” (International Journal of Molecular Sciences, 2021)

Assays:
Format in all cases: in vivo
glutathione (GSH) = assay: Quantification of glutathione (GSH) in brain parts of treated BTBR mice; settings: i.p., ST-2223 5 mg/kg, RAM 10 mg/kg, ARP 1 mg/kg, MEM 5 mg/kg, mean ± SEM; for GSH, Striatum: n = 3-6, BTBR vehicle 583 ± 68.8; for GSH, Cerebellum: n = 3-6, BTBR vehicle 827 ± 93.3; for GSH, Prefrontal Cortex: n = 3-6, BTBR vehicle 835 ± 97.4; for GSH, Hippocampus: n = 3-6, BTBR vehicle 1096 ± 16.7
Method: (§1) At the end of the behavioral assessments, the animals were sacrificed following previously published protocols. Animals were anesthetized with pentobarbital (40 mg/kg, body weight, i.p.), sacrificed, and perfused via intracardial infusion to wash out the blood, using 1× PBS (0.01 M phosphate buffer, 0.0027 M potassium chloride and 0.137 M sodium chloride) at pH 7.4. […] The brains were then quickly removed and placed on an ice plate. The cerebellum, hippocampus, prefrontal and striatum were excised from the brain and snap-frozen in liquid nitrogen for further use in biochemical assessments. On the day of the biochemical tests, the tissues were homogenized using radioimmunoprecipitation assay (RIPA) buffer (50 mM Tris HCl, pH 7.4, 140 mM NaCl, 1 mM EDTA, 0.5% Triton X-100 and 0.5% sodium deoxycholate) supplemented with protease and phosphatase inhibitors. Then, the homogenates were centrifuged at 14,000 rpm for 30 min (4 °C), and the supernatant was used for evaluation of lipid peroxidation, glutathione, and antioxidant enzymes using spectrophotometric measurements and enzyme-linked immunosorbent assays (ELISA)..
Levels of GSH in tissue homogenates were carried out according to the manufacturer’s instructions of the commercially available Sigma’s glutathione assay kit (Sigma-Aldrich Chemie GmbH, Steinheim), and as previously described. In brief, samples were first deproteinized with 5% 5-sulfosalicylic acid solution, centrifuged to remove the precipitated protein, and then the supernatant was used to estimate GSH. Ten microliter samples or standards were incubated with 150 μL of working mixture (assay buffer + 5,5′-dithiobis (2-nitrobenzoic acid) + GSH reductase) in 96-well plates for 5 min. Diluted NADPH solution (50 µL) was added into each well and mixed thoroughly. Absorbance was measured at 412 nm with the kinetics for 5 min by using the microplate reader. Results are expressed as µM GSH/mg protein.

BTBR and B6 mice = assay: Marble burying task (MBT); settings: MEM 5 mg/kg; for percentage of marbles buried vs vehicle-treated BTBR mice: i.p. 30-45 min before, ST-2223 2.5, 5 and 10 mg/kg, ARP 1 mg/kg; for percentage of marbles buried vs vehicle-treated B6 mice: i.p., ST-2223 2.5, 5, 10 mg/kg
Method: The drugs tested included ST-2223 [N-(4-(4-(2-methoxyphenyl)piperazin-1-yl)butyl)-6-(3-(piperidin-1-yl)propoxy)-2-naphthamide] that was designed and synthesized in the Institute of Pharmaceutical and Medicinal Chemistry, Heinrich Heine University Düsseldorf, Germany, and in accordance with previously described methodologies (Supplementary Materials). Aripiprazole (ARP) (1 mg/kg, i.p.) and memantine (MEM, 5 mg/kg, i.p.), as reference drugs, were purchased from Sigma-Aldrich (St. Louis, MO, USA). The CNS-penetrant H3R agonist (R)-α-methylhistamine (RAM, 10 mg/kg, i.p.) was purchased from Sigma-Aldrich, St. Louis, MO, USA. T. Protease and the phosphatase inhibitor cocktail were procured from Thermo Scientific, USA. The assay kit for reduced glutathione (GSH) was obtained from Sigma-Aldrich (St. Louis, MO, USA). The lipid peroxidation assay kit for estimation of malondialdehyde (MDA) was purchased from North West Life Science (Vancouver, WA, USA). The assay kits for superoxide dismutase (SOD) and catalase (CAT) were purchased from Cayman Chemical (Ann Arbor, MI, USA). The drugs were prepared daily using 1% dimethyl sulfoxide (DMSO) in 0.9% saline, for intraperitoneal (i.p.) administration at a volume of 10 mL/kg of body weight. Vehicle treatment consisted of 1% DMSO in 0.9% normal saline. All drugs were i.p. administered 30 min before the behavioral test. The doses of these drugs were chosen based on previous reports. Neurobehavioral assessment was performed blindly with respect to experimental group and drug administration.
The MBT is used for testing repetitive and compulsive behaviors as it accurately reflects repetitive digging behavior [95, 96]. The test was performed as described previously, with slight modifications. Briefly, cages (26 cm × 48 cm × 20 cm) were filled with fresh, unscented mouse bedding material to a depth of 5 cm, on top of which 20 marbles were placed in 4 rows of 5 marbles each (15 mm diameter). Before placing the marbles, the bedding surface was leveled by placing another cage of the same size onto the surface of the bedding and then each mouse was individually added for 10 min habituation. After habituation, the mouse was removed, and the marbles were carefully overlaid. The same mouse was then returned to its designated test cage and allowed to explore for 30 min. The total number of marbles buried (>50% marble covered by the bedding material) was determined at the end of the session.

catalase (CAT) = assay: Catalase (CAT) activity in brain parts of treated BTBR mice; settings: i.p., ST-2223 5 mg/kg, RAM 10 mg/kg, ARP 1 mg/kg, MEM 5 mg/kg, mean ± SEM; for CAT, Prefrontal Cortex: n = 3-6, BTBR vehicle 80.1 ± 14.9; for CAT, Striatum: n = 3-6, BTBR vehicle 104.6 ± 2.28; for CAT, Hippocampus: n = 3-6, BTBR vehicle 111.4 ± 4.8; for CAT, Cerebellum: n = 3-6, BTBR vehicle 130. 7 ± 3.3
Method: as §1
To assess the activity of antioxidant enzymes Superoxide dismutase (SOD) and Catalase (CAT), commercially available kits were used, following the manufacturer’s instructions, and as previously reported. Cayman assay kits (Cayman Chemicals Company, Ann Arbor, MI, USA) were used to assess antioxidant enzyme (superoxide dismutase (SOD) and catalase (CAT)) activities in experimental animals. Catalase assay: Twenty microliters of samples or standards and 30 μL of methanol was added to the assay buffer (100 μL) in 96-well plates. To this mixture, twenty microliter of hydrogen peroxide was added and incubated for 20 min at room temperature (RT) to initiate the reaction. Following incubation, 30 μL of potassium hydroxide was used to terminate the reaction, followed by subsequent addition of catalase purpald (30 μL) and catalase potassium periodate (10 μL). The plate was incubated for 5 min at room temperature in a shaker and the plate was read at 540 nm using a microplate reader. Catalase activity was expressed as nmol/min/mg protein. Superoxide dismutase assay: ten microliters of sample or standard was added in 96-well plates. Twenty microliters of xanthine oxidase were added to initiate the reaction. The reaction mixture was mixed for few seconds and incubated (covered) for 30 min at room temperature (RT). Absorbance was read at 450 nm using microplate reader. The activity of SOD was expressed as units/mg protein.

Compound | GSH, Striatum (glutathione (GSH)) | GSH, Cerebellum (glutathione (GSH)) | GSH, Prefrontal Cortex (glutathione (GSH)) | GSH, Hippocampus (glutathione (GSH)) | percentage of marbles buried vs vehicle-treated BTBR mice (BTBR and B6 mice) | CAT, Prefrontal Cortex (catalase (CAT)) | CAT, Striatum (catalase (CAT)) | CAT, Hippocampus (catalase (CAT)) | CAT, Cerebellum (catalase (CAT)) | percentage of marbles buried vs vehicle-treated B6 mice (BTBR and B6 mice)
O=C1CCc2ccc(OCCCCN3CCN(c4cccc(Cl)c4Cl)CC3)cc2N1 [ARP, aripiprazole] | 1139 ± 74.6 µM GSH/mg protein | 1030 ± 36.2 µM GSH/mg protein | 935 ± 98.0 µM GSH/mg protein | 611.5 ± 62.6 µM GSH/mg protein | significantly reduced | 96.2 ± 1.3 nmol/min/mg protein | 120.5 ± 10.1 nmol/min/mg protein | 118.3 ± 6.5 nmol/min/mg protein | 159.2 ± 5.1 nmol/min/mg protein | –
CC12CC3CC(C)(C1)CC(N)(C3)C2 [MEM, memantine] | 915.5 ± 97.3 µM GSH/mg protein | 877 ± 55.7 µM GSH/mg protein | 719.3 ± 50.0 µM GSH/mg protein | – | significantly reduced | 94.1 ± 4.8 nmol/min/mg protein | 108.1 ± 3.4 nmol/min/mg protein | 114.3 ± 11.2 nmol/min/mg protein | 132.3 ± 4.5 nmol/min/mg protein | not significant
COc1ccccc1N1CCN(CCCCNC(=O)c2ccc3cc(OCCCN4CCCCC4)ccc3c2)CC1 [ST-2223, N-(4-(4-(2-methoxyphenyl)piperazin-1-yl)butyl)-6-(3-(piperidin-1-yl)propoxy)-2-naphthamide] | 1007 ± 93.1 µM GSH/mg protein | 1108 ± 41.1 µM GSH/mg protein | 1212 ± 302.6 µM GSH/mg protein | 916 ± 4.2 µM GSH/mg protein | significantly decreased | 116.8 ± 5.3 nmol/min/mg protein | 119.1 ± 3.7 nmol/min/mg protein | 173.0 ± 1.9 nmol/min/mg protein | 120.6 ± 8.8 nmol/min/mg protein | did not alter
